Assay [1] deals with Staphylococcus aureus Smith No. 4. The assay can be described thus: In vivo antibacterial activity, oral treatment of intraperitoneally infected mice. Set-up: species or system ICR mice. Particulars: one hour after infection, 7-day survival, Litchfield-Wilcoxon, 95% confidence limits given.
Assay [2] has as its system Baccilus cereus ATCC 9634. The assay can be described thus: In vitro antibacterial activity (MIC method specified by the Japan Chemotherapeutic Society). Type of assay: cell-based. Particulars: sensitive media (Eiken), read-out: MIC value (minimum inhibitory concentration). The method, then:
(§1) The antibacterial activity of the compound I against various bacteria was measured using sensitive media (produced by Eiken Co.) according to the MIC method specified by the Japan Chemotherapeutic Society. Erythromycin A was used as a control.

For assay [3], the system named is Bacillus subtilis ATCC 6633. The assay is described as above. Format: cell-based. The method, then: as §1
Assay [4] has as its system Escherichia coli NIHJ JC-2. The description is as above. Format: cell-based. Particulars: NIHJJC2, sensitive media (Eiken), read-out: MIC value (minimum inhibitory concentration). The method, then:
as §1

Assay [5] concerns Streptococcus faecalis 8043. The assay is described as above. Format: cell-based. The method, then: as §1
Assay [6] deals with Staphylococcus aureus FDA 209P. The assay is described as above. Format: cell-based. Particulars: FDA209P, read-out: MIC value (minimum inhibitory concentration). The method, then: as §1
Assay [7] has as its system Streptococcus epidermidis sp-al-l. The description is as above. Format: cell-based. Particulars: read-out: MIC value (minimum inhibitory concentration). The method, then: as §1
Assay [8] relates to Staphylococcus aureus Smith No. 4. The description is as above. Format: cell-based. Conditions: read-out: MIC value (minimum inhibitory concentration). The protocol:
as §1

For assay [9] the test system is unchanged. In words: In vivo antibacterial activity, oral treatment of intraperitoneally infected mice. The arrangement: species or system ICR mice. Particulars: for number of mice surviving for 7 days after the infection: one hour after infection, 10 mice per group. The protocol: 10 male ICR mice (Charles River) being of the average body weight 23 g were used for each group. Staphylococcus aureus Smith No. 4 was grown on heart infusion agar medium at 37° C. for 18 hours. The bacteria were suspended in BSG (containing 8.5 g of NaCl, 300 mg of KH2 PO4, 600 mg of Na2 HPO4, 100 mg of gelatin and 1000 ml of water) to show 6×10^7 cfu/ml (containing 5% of mucin). The bacterial suspension (0.5 ml) was injected intraperitoneally to each groups of mice for infection. Erythromycin A and erythromycin A 9-oxime were used as control. An hour after infection, each compound was administered orally to different groups of animals in the specified amounts to study its therapeutic effect.
The therapeutic effect of the drugs was judged by the […] value calculated from the number of mice surviving for 7 days after the infection according to the method of Litchfield-Wilcoxon.

The test system of another assay is bacteria. In words: Antibacterial activity (general statement). Conditions: general statement in words.

The structures appear in SMILES notation. ≈ marks a conversion by molar mass, not a printed value. Like-named read-outs stand apart in the source and are kept apart here.

`CC[C@H]1OC(=O)[C@H](C)[C@@H](O[C@H]2C[C@@](C)(OC)[C@@H](O)[C@H](C)O2)[C@H](C)[C@@H](O[C@@H]2O[C@H](C)C[C@H](N(C)C)[C@H]2O)[C@](C)(O)C[C@@H](C)C(=O)[C@H](C)[C@@H](O)[C@]1(C)O` [Erythromycin A, erythromycin A] displayed an ED50 in assay [1] of 1.517 mg/mouse. The MIC in assay [2] was 0.2 µg/mL (≈ 0.273 µM); in assay [3] (Bacillus subtilis, ATCC6633, read-out: MIC value (minimum inhibitory concentration)) it was 0.1 µg/mL (≈ 0.136 µM); in assay [4] it was 50 µg/mL (≈ 68.1 µM); in [5] (Enterococcus faecalis, 8043, read-out: MIC value (minimum inhibitory concentration)), ≤ 0.05 µg/mL; in assay [6] (Staphylococcus aureus), 0.2 µg/mL (≈ 0.273 µM); in assay [7] (Streptococcus), 0.2 µg/mL (≈ 0.273 µM). In assay [8] (Staphylococcus aureus), the MIC came out at 0.1 µg/mL (≈ 0.136 µM). In addition, the results for the “number of mice surviving for 7 days after the infection” value (shortened to “number of mice surviving for 7 days”) in assay [9] (1 mg/mouse), in [9] (2 mg/mouse) and in assay [9] (4 mg/mouse) were 1/10, 8/10 and 10/10, respectively.
For the compound `CC[C@H]1OC(=O)[C@H](C)[C@@H](O[C@H]2C[C@@](C)(OC)[C@@H](O)[C@H](C)O2)[C@H](C)[C@@H](O[C@@H]2O[C@H](C)C[C@H](N(C)C)[C@H]2O)[C@](C)(O)C[C@@H](C)C(=NO)[C@H](C)[C@@H](O)[C@]1(C)O` [Erythromycin A 9-oxime, erythromycin A 9-oxime], in assay [1], the ED50 came to 1.418 mg/mouse. Moreover, the “number of mice surviving for 7 days” value in assay [9] (0.5 mg/mouse) was 0/10; in [9] (1 mg/mouse), 3/10; in [9] (2 mg/mouse), 7/10.
Take `CC[C@H]1OC(=O)[C@H](C)[C@@H](O[C@H]2C[C@@](C)(OC)[C@@H](O)[C@H](C)O2)[C@H](C)[C@@H](O[C@@H]2O[C@H](C)C[C@H](N(C)C)[C@H]2O)[C@](C)(OC)C[C@@H](C)C(=NO)[C@H](C)[C@@H](O)[C@]1(C)O` [Compound I, 6-O-methylerythromycin A 9-oxime]: the ED50 in assay [1] turned out to be 0.516 mg/mouse. Further, the antibacterial activity entry with bacteria is “strong antibacterial activity”. For the same compound, the MIC was 0.1 µg/mL (≈ 0.131 µM) in assay [2]; 0.1 µg/mL (≈ 0.131 µM) in assay [3] (ATCC6633, Bacillus subtilis ATCC 6633, sensitive media (Eiken), read-out: MIC value (minimum inhibitory concentration)); 50 µg/mL (≈ 65.5 µM) in assay [4]; ≤ 0.05 µg/mL in assay [5] (Enterococcus faecalis, Streptococcus faecalis 8043, sensitive media (Eiken), read-out: MIC value (minimum inhibitory concentration)); 0.1 µg/mL (≈ 0.131 µM) in assay [6] (Staphylococcus aureus FDA 209P, sensitive media (Eiken)); 0.2 µg/mL (≈ 0.262 µM) in assay [7] (Streptococcus epidermidis sp-al-l, sensitive media (Eiken)). Further, the MIC in assay [8] (Staphylococcus aureus Smith No. 4, sensitive media (Eiken)) was 0.1 µg/mL (≈ 0.131 µM). The “number of mice surviving for 7 days” value in assay [9] (0.2 mg/mouse) is on record as 1/10; in assay [9] (0.4 mg/mouse), 4/10; in assay [9] (0.8 mg/mouse) it was 7/10. In addition, the “antibacterial activity by oral administration” value in assay [9] (compared with erythromycin A or erythromycin A 9-oxime) is recorded as “far superior to erythromycin A or erythromycin A 9-oxime”.
